According to publication PMC2758489 (Journal of neurochemistry, 2009):

Target: tau (Homo sapiens, UniProt P10636, P618L)
Experiment: heparin-induced fibrillization, ThT fluorescence
Type: biochemical

Sequence of tau (P10636 561-689 P618L): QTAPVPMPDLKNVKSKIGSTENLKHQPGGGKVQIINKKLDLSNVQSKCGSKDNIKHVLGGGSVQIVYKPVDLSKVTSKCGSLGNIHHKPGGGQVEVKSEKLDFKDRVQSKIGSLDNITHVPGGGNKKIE

Row | IC50 [µM] | SMILES
1 | ~3.5 | C/C=C(/C=O)[C@H](CC=O)CC(=O)OCCc1ccc(O)cc1 [(+)-oleocanthal]
2 | ~2.9 | C/C=C(/C=O)[C@@H](CC=O)CC(=O)OCCc1ccc(O)cc1 [compound 1, (-)-oleocanthal]
